In one test the test system is CD4+ T cells. The test can be described thus: Exogenous autologous healthy donor restimulation assay, TNFα and IFNγ production by CD4+ T cells. The format is cell-based, human. On the set-up: Frequency (TNFα+ IFNγ+ CD4 T cells): unit not given here. The note with it: donor independent, peptide pool 10 μg/mL, healthy donors; for Fold change (CD4+) vs. DMSO: maximum CD4+ T-cell response (TNFα and IFNγ); for Frequency (TNFα+ IFNγ+ CD4 T cells): maximum CD4+ T-cell response. A digest of the protocol:
(§1)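 CD1c+ DCs from healthy donor PBMCs pulsed 2 h with 15-mer overlapping neoantigen peptide pools (10 μg/mL), irradiated 50 Gy, then co-cultured 12 days with autologous CD3+ T cells plus IL-15/IL-2. Restimulated day 11 with same pools, overnight with protein inhibitor; intracellular TNFα/IFNγ by flow. Positive: ≥3-fold over DMSO and ≥0.01% double-positive.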

For another test, the system named is CD8+ T cells. The test is described as follows: Exogenous autologous healthy donor restimulation assay, TNFα and IFNγ production by CD8+ T cells. The format is cell-based, human. Particulars: for Fold change (CD8+) vs. DMSO: maximum CD8+ T-cell response (TNFα and IFNγ); for Fold change (CD8+) vs. DMSO / Frequency (TNFα+ IFNγ+ CD8 T cells): donor independent, peptide pool 10 μg/mL, healthy donors; for Frequency (TNFα+ IFNγ+ CD8 T cells): maximum CD8+ T-cell response; for Immunogenic (yes/no): positive if CD8+ and/or CD4+ double positive TNFα/IFNγ frequency >=3-fold over DMSO and at least 0.01%. On the set-up: Frequency (TNFα+ IFNγ+ CD8 T cells): unit not given here. A digest of the protocol: as §1

On to “NAVRSYYETNGGMSFLRITP [FUS19, gene fusion CADPS2-> RNF148]”, for which, in the test with CD4+ T cells, the “Fold change (CD4+) vs. DMSO” value is 1.26 and the “Frequency (TNFα+ IFNγ+ CD4 T cells)” value is recorded as 0.009. Besides, in the test with CD8+ T cells, the “Fold change (CD8+) vs. DMSO” value is 12.96, the “Frequency (TNFα+ IFNγ+ CD8 T cells)” value turned out to be 0.016 and the “Immunogenic (yes/no)” value is on record as “Yes”.

On to “PPTAAASQTMQIFVKT [FUS31, gene fusion FOSB-> UBC]”, for which, in the test on CD4+ T cells, the “Fold change (CD4+) vs. DMSO” value amounted to 0.7 and the “Frequency (TNFα+ IFNγ+ CD4 T cells)” value stood at 0.004. In the test on CD8+ T cells, the “Fold change (CD8+) vs. DMSO” value is recorded as 14.72, the “Frequency (TNFα+ IFNγ+ CD8 T cells)” value came to 0.022 and the “Immunogenic (yes/no)” value is reported as “Yes”.

As to “RPGVFTDIL [FUS53, gene fusion PTPRG-> C3orf14]”, in the test with CD4+ T cells, the “Fold change (CD4+) vs. DMSO” value was 6.29 and the “Frequency (TNFα+ IFNγ+ CD4 T cells)” value is recorded as 0.041. Besides, in the test on CD8+ T cells, the “Fold change (CD8+) vs. DMSO” value is on record as 76.5, the “Frequency (TNFα+ IFNγ+ CD8 T cells)” value is given as 0.78 and the “Immunogenic (yes/no)” value is reported as “Yes”.

As for “RHQENVHTVLVHGKVKGLFYI [AS125, alternative splicing, PRDM5]”, in the test with CD4+ T cells, the “Fold change (CD4+) vs. DMSO” value turned out to be 6.57 and the “Frequency (TNFα+ IFNγ+ CD4 T cells)” value was determined as 0.023. Besides, in the test on CD8+ T cells, the “Fold change (CD8+) vs. DMSO” value amounted to 28.62, the “Frequency (TNFα+ IFNγ+ CD8 T cells)” value was 0.78 and the “Immunogenic (yes/no)” value is “Yes”.

On to “IDPSSPLHTYYERITKGRNPERRYMKPERISPGHEAMEKNLEDNL [AS129, alternative splicing, TET1]”, for which, in the test with CD4+ T cells, the “Fold change (CD4+) vs. DMSO” value stood at 9.79 and the “Frequency (TNFα+ IFNγ+ CD4 T cells)” value is reported as 0.022. In the test with CD8+ T cells, the “Fold change (CD8+) vs. DMSO” value is listed as 19.08, the “Frequency (TNFα+ IFNγ+ CD8 T cells)” value was 0.27 and the “Immunogenic (yes/no)” value is “Yes”.

On to “GRAGQGGGMISVSQEFIK [FUS7, gene fusion FAM98A-> LOC105374454]”, for which, in the test with CD4+ T cells, the “Fold change (CD4+) vs. DMSO” value is given as 17.18 and the “Frequency (TNFα+ IFNγ+ CD4 T cells)” value was determined as 0.21. Further, in the test with CD8+ T cells, the “Fold change (CD8+) vs. DMSO” value is on record as 3.04, the “Frequency (TNFα+ IFNγ+ CD8 T cells)” value is given as 0.093 and the “Immunogenic (yes/no)” value is reported as “Yes”.

On to “SLLSLFPGKTVEITCLQHQKC [AS3, alternative splicing, BBS9]”, for which, in the test on CD4+ T cells, the “Fold change (CD4+) vs. DMSO” value stood at 3.43 and the “Frequency (TNFα+ IFNγ+ CD4 T cells)” value worked out at 0.026. Also, in the test with CD8+ T cells, the “Fold change (CD8+) vs. DMSO” value turned out to be 92.41, the “Frequency (TNFα+ IFNγ+ CD8 T cells)” value turned out to be 0.28 and the “Immunogenic (yes/no)” value is given as “Yes”.

For the molecule “IIMALAILDLFAVLKIEAHKQLLLKSFCYGAGK [AS113, alternative splicing, CLCC1]”, in the test on CD4+ T cells, the “Fold change (CD4+) vs. DMSO” value was 5.7 and the “Frequency (TNFα+ IFNγ+ CD4 T cells)” value is 0.009. For the same molecule, in the test with CD8+ T cells, the “Fold change (CD8+) vs. DMSO” value came out at 5.07, the “Frequency (TNFα+ IFNγ+ CD8 T cells)” value came out at 0.38 and the “Immunogenic (yes/no)” value is reported as “Yes”.

Consider “DPTTKRSRLTPKLHFLVERNPRWSQEQRKYL [AS92, alternative splicing, MSI2]”, for which, in the test with CD4+ T cells, the “Fold change (CD4+) vs. DMSO” value is recorded as 31.67 and the “Frequency (TNFα+ IFNγ+ CD4 T cells)” value was found to be 0.048. In the test with CD8+ T cells, the “Fold change (CD8+) vs. DMSO” value is listed as 41.24, the “Frequency (TNFα+ IFNγ+ CD8 T cells)” value is 0.073 and the “Immunogenic (yes/no)” value is reported as “Yes”.

“VAPSQSRQEECWRHKMSW [AS42, alternative splicing, LARP1B]”: in the test with CD4+ T cells, the “Fold change (CD4+) vs. DMSO” value worked out at 3.83 and the “Frequency (TNFα+ IFNγ+ CD4 T cells)” value is given as 0.025. In the test with CD8+ T cells, the “Fold change (CD8+) vs. DMSO” value was 40, the “Frequency (TNFα+ IFNγ+ CD8 T cells)” value is 0.076 and the “Immunogenic (yes/no)” value is recorded as “Yes”.

“AAGVVTEIEAAVKA [FUS17, gene fusion HBS1L-> ALDH8A1]”: in the test with CD4+ T cells, the “Fold change (CD4+) vs. DMSO” value came to 2.11 and the “Frequency (TNFα+ IFNγ+ CD4 T cells)” value is given as 0.012. Also, in the test on CD8+ T cells, the “Fold change (CD8+) vs. DMSO” value was 5.31, the “Frequency (TNFα+ IFNγ+ CD8 T cells)” value came out at 0.13 and the “Immunogenic (yes/no)” value is listed as “Yes”.

“IEKSISARITEQ [FUS36, gene fusion TNFRSF17-> SNX29]”: in the test with CD4+ T cells, the “Fold change (CD4+) vs. DMSO” value was determined as 4.69 and the “Frequency (TNFα+ IFNγ+ CD4 T cells)” value was found to be 0.008. In the test on CD8+ T cells, the “Fold change (CD8+) vs. DMSO” value amounted to 8.7, the “Frequency (TNFα+ IFNγ+ CD8 T cells)” value is 0.013 and the “Immunogenic (yes/no)” value is “Yes”.

On to “PPTAAASQTCLELER [FUS21, gene fusion FOSB-> KLF6]”, for which, in the test with CD4+ T cells, the “Fold change (CD4+) vs. DMSO” value was found to be 8.08 and the “Frequency (TNFα+ IFNγ+ CD4 T cells)” value came out at 0.023. In the test with CD8+ T cells, the “Fold change (CD8+) vs. DMSO” value was 4.24, the “Frequency (TNFα+ IFNγ+ CD8 T cells)” value was found to be 0.04 and the “Immunogenic (yes/no)” value is recorded as “Yes”.

Consider “DMEVFLKEASTNQHNTLIHLTLTFST [AS73, alternative splicing, SMC5]”, for which, in the test with CD4+ T cells, the “Fold change (CD4+) vs. DMSO” value is reported as 72.58 and the “Frequency (TNFα+ IFNγ+ CD4 T cells)” value worked out at 0.11. In the test with CD8+ T cells, the “Fold change (CD8+) vs. DMSO” value stood at 3, the “Frequency (TNFα+ IFNγ+ CD8 T cells)” value is reported as 0.02 and the “Immunogenic (yes/no)” value was “Yes”.

B1: RQREVVDLVSPREPSRDRRAGGGDLAARPTGRASVWLLGVSVCTAVCRVSCCAGVSCFLFTGEEGPGYACSESWNSEGRPKWEAIVERTCDMGPYNGMCLQG (peptide)
chain: RQREVVDLVSPREPSRDRRAGGGDLAARPTGRASVWLLGVSVCTAVCRVSCCAGVSCFLFTGEEGPGYACSESWNSEGRPKWEAIVERTCDMGPYNGMCLQG
notes: alternative splicing, CTHRC1
Turning to B1, in the test with CD4+ T cells, the “Fold change (CD4+) vs. DMSO” value was 57.613 and the “Frequency (TNFα+ IFNγ+ CD4 T cells)” value amounted to 0.072. In the test on CD8+ T cells, the “Fold change (CD8+) vs. DMSO” value came out at 2700, the “Frequency (TNFα+ IFNγ+ CD8 T cells)” value was found to be 0.27 and the “Immunogenic (yes/no)” value is “Yes”.

B2: PPTAAASQVRSPTTATGTAAAGSLRAQTSSRATTESTRATGHSSAICAIVPSRAPITWRCT (peptide)
chain: PPTAAASQVRSPTTATGTAAAGSLRAQTSSRATTESTRATGHSSAICAIVPSRAPITWRCT
notes: gene fusion FOSB-> KLF2
On to B2, for which, in the test with CD4+ T cells, the “Fold change (CD4+) vs. DMSO” value is reported as 6.84 and the “Frequency (TNFα+ IFNγ+ CD4 T cells)” value is recorded as 0.002. Further, in the test with CD8+ T cells, the “Fold change (CD8+) vs. DMSO” value was determined as 37.46, the “Frequency (TNFα+ IFNγ+ CD8 T cells)” value worked out at 0.056 and the “Immunogenic (yes/no)” value was “Yes”.

B3: TQRLPGHKVSNSCMTGLVLTFTKRDPFHKPVTWCGQLADVRQCMFHSIRERAHPLQRALATLNFFFVSFYTALYLTHPLLTLQTWEVVVTVCFSCWELCVPCDVLRRTCRGQR (peptide)
chain: TQRLPGHKVSNSCMTGLVLTFTKRDPFHKPVTWCGQLADVRQCMFHSIRERAHPLQRALATLNFFFVSFYTALYLTHPLLTLQTWEVVVTVCFSCWELCVPCDVLRRTCRGQR
notes: alternative splicing, BTBD3
On to B3, for which, in the test with CD4+ T cells, the “Fold change (CD4+) vs. DMSO” value worked out at 7.26 and the “Frequency (TNFα+ IFNγ+ CD4 T cells)” value amounted to 0.025. In the test on CD8+ T cells, the “Fold change (CD8+) vs. DMSO” value is 17.3, the “Frequency (TNFα+ IFNγ+ CD8 T cells)” value is 0.77 and the “Immunogenic (yes/no)” value is “Yes”.

B4: SLLIGALRITWKREAGRKSFFKCGLRVHMWKGLQFIEITRRNWMLIFQSCSLFGTSQYRSLTKKCQLCFRFKRVSSKGSDITDKREVTH (peptide)
chain: SLLIGALRITWKREAGRKSFFKCGLRVHMWKGLQFIEITRRNWMLIFQSCSLFGTSQYRSLTKKCQLCFRFKRVSSKGSDITDKREVTH
notes: alternative splicing, ARHGAP42
As for B4, in the test on CD4+ T cells, the “Fold change (CD4+) vs. DMSO” value is 15.34 and the “Frequency (TNFα+ IFNγ+ CD4 T cells)” value turned out to be 0.1. Moreover, in the test with CD8+ T cells, the “Fold change (CD8+) vs. DMSO” value came to 1100, the “Frequency (TNFα+ IFNγ+ CD8 T cells)” value stood at 0.29 and the “Immunogenic (yes/no)” value is given as “Yes”.
